Assay results reported in PubChem BioAssay AID1918931 (Molecular Pharmacology Branch, DTP, NCI, 2023).

Test system: 138582-337-R-J1-PDC complex spheroid viability
Experiment: Anticancer human tumor 138582-337-R-J1-PDC patient-derived Merkel cell tumor cell line growth inhibition
Conditions: for IC50: curve of first compound; for viability, T/C: stronger effect = lower value
Outline: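 Multicellular complex spheroids of tumor cells with human endothelial cells (HUVEC) and mesenchymal stem cells; the LSD1 inhibitor iadademstat was combined with standard-of-care or investigational agents. Top concentration at or near clinical Cmax, half-log dilutions; final DMSO ≤0.25%.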

[1] = second compound 0.1 µM, first compound 0.00316 µM
[2] = second compound 0.1 µM, first compound 0.01 µM
[3] = second compound 0.1 µM, first compound 0.0316 µM
[4] = second compound 0.1 µM, first compound 0.1 µM
[5] = second compound 0.316 µM, first compound 0.00316 µM
[6] = second compound 0.316 µM, first compound 0.01 µM
[7] = second compound 0.316 µM, first compound 0.0316 µM
[8] = second compound 0.316 µM, first compound 0.1 µM
[9] = second compound 1 µM, first compound 0.00316 µM
[10] = second compound 1 µM, first compound 0.01 µM
[11] = second compound 1 µM, first compound 0.0316 µM
[12] = second compound 1 µM, first compound 0.1 µM
[13] = second compound 3.16 µM, first compound 0.00316 µM
[14] = second compound 3.16 µM, first compound 0.01 µM
[15] = second compound 3.16 µM, first compound 0.0316 µM
[16] = second compound 3.16 µM, first compound 0.1 µM
[17] = second compound 10 µM, first compound 0.00316 µM
[18] = second compound 10 µM, first compound 0.01 µM
[19] = second compound 10 µM, first compound 0.0316 µM
[20] = second compound 10 µM, first compound 0.1 µM
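Also: spheroids exposed to agents for 7 days.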
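For viability, T/C in this document: 100% = DMSO vehicle control viability.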

With `COc1cc(Nc2ncc3c(n2)-c2ccc(Cl)cc2C(c2c(F)cccc2OC)=NC3)ccc1C(=O)O` + NC1CC1c1ccc(-c2cccc(O)c2)cc1 as the compound, how does the IC50 (second compound 0.1 µM) read?
Its IC50 is 355 nM.

What about the IC50 (second compound 0.316 µM) of the same compound?
The IC50 was 210 nM.

And the IC50 (second compound 1 µM)?
Its IC50 is 222 nM.

What about the IC50 (second compound 3.16 µM) of the same compound?
Its IC50 is 183 nM.

And the IC50 (second compound 10 µM)?
Its IC50 is 463 nM.

What about the viability, T/C [1] of the same compound?
Its viability, T/C is 66.5%.

And the viability, T/C [2]?
The viability, T/C was 76.5%.

And the viability, T/C [3]?
The viability, T/C was 61.4%.

What about the viability, T/C [4] of the same compound?
Its viability, T/C is 66.4%.

And the viability, T/C (second compound 0.1 µM, first compound 0.316 µM)?
The viability, T/C was 51.9%.

And the viability, T/C (second compound 0.1 µM, first compound 1 µM)?
Its viability, T/C is 28.4%.

What about the viability, T/C [5] of the same compound?
Its viability, T/C is 64.7%.

And the viability, T/C [6]?
The viability, T/C was 69.4%.

And the viability, T/C [7]?
Its viability, T/C is 60.1%.

What about the viability, T/C [8] of the same compound?
Its viability, T/C is 64.3%.

What about the viability, T/C (second compound 0.316 µM, first compound 0.316 µM) of the same compound?
Its viability, T/C is 42.1%.

What about the viability, T/C (second compound 0.316 µM, first compound 1 µM) of the same compound?
The viability, T/C was 30.6%.

What about the viability, T/C [9] of the same compound?
Its viability, T/C is 70.8%.

And the viability, T/C [10]?
The viability, T/C was 79.4%.

What about the viability, T/C [11] of the same compound?
The viability, T/C was 64.9%.

What about the viability, T/C [12] of the same compound?
Its viability, T/C is 59%.

And the viability, T/C (second compound 1 µM, first compound 0.316 µM)?
Its viability, T/C is 46.7%.

And the viability, T/C (second compound 1 µM, first compound 1 µM)?
Its viability, T/C is 33.2%.

And the viability, T/C [13]?
The viability, T/C was 70.4%.

And the viability, T/C [14]?
Its viability, T/C is 89.8%.

And the viability, T/C [15]?
The viability, T/C was 82.5%.

And the viability, T/C [16]?
Its viability, T/C is 60.7%.

What about the viability, T/C (second compound 3.16 µM, first compound 0.316 µM) of the same compound?
The viability, T/C was 41.9%.

And the viability, T/C (second compound 3.16 µM, first compound 1 µM)?
The viability, T/C was 38.8%.

And the viability, T/C [17]?
The viability, T/C was 82.6%.

And the viability, T/C [18]?
Its viability, T/C is 97%.

What about the viability, T/C [19] of the same compound?
Its viability, T/C is 80.2%.

What about the viability, T/C [20] of the same compound?
Its viability, T/C is 80.9%.

What about the viability, T/C (second compound 10 µM, first compound 0.316 µM) of the same compound?
The viability, T/C was 57.2%.

What about the viability, T/C (second compound 10 µM, first compound 1 µM) of the same compound?
The viability, T/C was 34.8%.

With `Cn1ncnc1C1c2n[nH]c(=O)c3cc(F)cc(c23)NC1c1ccc(F)cc1` (stereo not given) + NC1CC1c1ccc(-c2cccc(O)c2)cc1 as the compound, how does the IC50 (second compound 0.1 µM) read?
The IC50 was > 100 nM.

And the IC50 (second compound 0.316 µM)?
Its IC50 is > 100 nM.

And the IC50 (second compound 1 µM)?
Its IC50 is > 100 nM.

And the IC50 (second compound 3.16 µM)?
Its IC50 is > 100 nM.

And the IC50 (second compound 10 µM)?
Its IC50 is > 100 nM.

And the viability, T/C (second compound 0.1 µM, first compound 0.000316 µM)?
Its viability, T/C is 88.1%.

And the viability, T/C (second compound 0.1 µM, first compound 0.001 µM)?
The viability, T/C was 80.2%.

And the viability, T/C [1]?
Its viability, T/C is 83.3%.

And the viability, T/C [2]?
The viability, T/C was 69.9%.

What about the viability, T/C [3] of the same compound?
The viability, T/C was 62.3%.

What about the viability, T/C [4] of the same compound?
The viability, T/C was 67.3%.

What about the viability, T/C (second compound 0.316 µM, first compound 0.000316 µM) of the same compound?
Its viability, T/C is 72.5%.

What about the viability, T/C (second compound 0.316 µM, first compound 0.001 µM) of the same compound?
Its viability, T/C is 88.3%.

And the viability, T/C [5]?
Its viability, T/C is 74.2%.

What about the viability, T/C [6] of the same compound?
The viability, T/C was 71%.

And the viability, T/C [7]?
The viability, T/C was 66%.

And the viability, T/C [8]?
Its viability, T/C is 70.7%.

And the viability, T/C (second compound 1 µM, first compound 0.000316 µM)?
The viability, T/C was 79.8%.

What about the viability, T/C (second compound 1 µM, first compound 0.001 µM) of the same compound?
The viability, T/C was 83.7%.

What about the viability, T/C [9] of the same compound?
Its viability, T/C is 73%.

And the viability, T/C [10]?
The viability, T/C was 86.2%.

What about the viability, T/C [11] of the same compound?
The viability, T/C was 82.2%.

And the viability, T/C [12]?
The viability, T/C was 77%.

What about the viability, T/C (second compound 3.16 µM, first compound 0.000316 µM) of the same compound?
Its viability, T/C is 80.4%.

What about the viability, T/C (second compound 3.16 µM, first compound 0.001 µM) of the same compound?
Its viability, T/C is 91.3%.

And the viability, T/C [13]?
The viability, T/C was 82.5%.

And the viability, T/C [14]?
Its viability, T/C is 81.1%.

And the viability, T/C [15]?
The viability, T/C was 72.1%.

And the viability, T/C [16]?
Its viability, T/C is 77.5%.

And the viability, T/C (second compound 10 µM, first compound 0.000316 µM)?
The viability, T/C was 99%.

And the viability, T/C (second compound 10 µM, first compound 0.001 µM)?
Its viability, T/C is 96.1%.

What about the viability, T/C [17] of the same compound?
Its viability, T/C is 100%.

And the viability, T/C [18]?
The viability, T/C was 84.3%.

What about the viability, T/C [19] of the same compound?
Its viability, T/C is 82.7%.

What about the viability, T/C [20] of the same compound?
Its viability, T/C is 81.2%.

`NS(=O)(=O)OCC1CC(n2ccc3c(NC4CCc5ccccc54)ncnc32)CC1O` (stereo not given) + NC1CC1c1ccc(-c2cccc(O)c2)cc1 was tested. Which IC50 (second compound 0.1 µM) did it give?
The IC50 was 78.9 nM.

What about the IC50 (second compound 0.316 µM) of the same compound?
The IC50 was 73.7 nM.

What about the IC50 (second compound 1 µM) of the same compound?
The IC50 was 72.6 nM.

And the IC50 (second compound 3.16 µM)?
Its IC50 is 100 nM.

And the IC50 (second compound 10 µM)?
The IC50 was 141 nM.

And the viability, T/C (second compound 0.1 µM, first compound 0.00949 µM)?
The viability, T/C was 83.6%.

And the viability, T/C (second compound 0.1 µM, first compound 0.03 µM)?
The viability, T/C was 63.1%.

What about the viability, T/C (second compound 0.1 µM, first compound 0.0949 µM) of the same compound?
Its viability, T/C is 48.4%.

And the viability, T/C (second compound 0.1 µM, first compound 0.3 µM)?
Its viability, T/C is 34.3%.

And the viability, T/C (second compound 0.1 µM, first compound 0.949 µM)?
Its viability, T/C is 15.5%.

What about the viability, T/C (second compound 0.1 µM, first compound 3 µM) of the same compound?
Its viability, T/C is 15%.

And the viability, T/C (second compound 0.316 µM, first compound 0.00949 µM)?
Its viability, T/C is 72.6%.

And the viability, T/C (second compound 0.316 µM, first compound 0.03 µM)?
The viability, T/C was 59%.

What about the viability, T/C (second compound 0.316 µM, first compound 0.0949 µM) of the same compound?
Its viability, T/C is 48.4%.

What about the viability, T/C (second compound 0.316 µM, first compound 0.3 µM) of the same compound?
Its viability, T/C is 34.3%.

What about the viability, T/C (second compound 0.316 µM, first compound 0.949 µM) of the same compound?
Its viability, T/C is 24.2%.

What about the viability, T/C (second compound 0.316 µM, first compound 3 µM) of the same compound?
Its viability, T/C is 15.6%.

And the viability, T/C (second compound 1 µM, first compound 0.00949 µM)?
Its viability, T/C is 82.2%.

What about the viability, T/C (second compound 1 µM, first compound 0.03 µM) of the same compound?
Its viability, T/C is 56.3%.

What about the viability, T/C (second compound 1 µM, first compound 0.0949 µM) of the same compound?
The viability, T/C was 50.3%.

What about the viability, T/C (second compound 1 µM, first compound 0.3 µM) of the same compound?
The viability, T/C was 35.8%.

What about the viability, T/C (second compound 1 µM, first compound 0.949 µM) of the same compound?
The viability, T/C was 15.6%.

And the viability, T/C (second compound 1 µM, first compound 3 µM)?
Its viability, T/C is 14.6%.

What about the viability, T/C (second compound 3.16 µM, first compound 0.00949 µM) of the same compound?
The viability, T/C was 86.2%.

What about the viability, T/C (second compound 3.16 µM, first compound 0.03 µM) of the same compound?
The viability, T/C was 63.7%.

And the viability, T/C (second compound 3.16 µM, first compound 0.0949 µM)?
The viability, T/C was 51.7%.

What about the viability, T/C (second compound 3.16 µM, first compound 0.3 µM) of the same compound?
The viability, T/C was 40.7%.

What about the viability, T/C (second compound 3.16 µM, first compound 0.949 µM) of the same compound?
Its viability, T/C is 17.4%.

And the viability, T/C (second compound 3.16 µM, first compound 3 µM)?
Its viability, T/C is 14%.

And the viability, T/C (second compound 10 µM, first compound 0.00949 µM)?
The viability, T/C was 103%.

What about the viability, T/C (second compound 10 µM, first compound 0.03 µM) of the same compound?
The viability, T/C was 68.1%.

What about the viability, T/C (second compound 10 µM, first compound 0.0949 µM) of the same compound?
The viability, T/C was 65.6%.

And the viability, T/C (second compound 10 µM, first compound 0.3 µM)?
The viability, T/C was 37.1%.

And the viability, T/C (second compound 10 µM, first compound 0.949 µM)?
The viability, T/C was 20.4%.

And the viability, T/C (second compound 10 µM, first compound 3 µM)?
The viability, T/C was 16.1%.
